Source: patent US20130072863A1, “CARBON DIOXIDE GAS MIST PRESSURE BATH METHOD AND CARBON DIOXIDE GAS MIST PRESSURE BATH APPARATUS FOR PREVENTING, IMPROVING OR CURING MYOCARDIAL INFARCTION” (priority 2010, published 2013)

What was measured:
[1] = tested on: models of myocardial infarction; experiment: laser tissue blood oxygen monitor measurement in the tissue during pressure bath treatment with four kinds of gases; format: in vivo, male wistar rats
Description: The compositions of gases sealed under pressure in the carbon dioxide gas mist pressure bath means were subjected to the experiments using the four kinds of air mist (AM), CO2 gas (CG), CO2 mist (CM) and 100% oxygen mist (OM). Each of gases was sealed under pressure in the carbon dioxide gas mist pressure bath means, and the treatments were practiced. The numbers of the individuals were 13, 14, 15 and 11 pieces, respectively. Each of the individuals was intubated into male wistar rats aged of 8 weeks under the pentobarbital anesthesia, subjected to the thoracotomy, and was ligated at the coronary left-front rami descendens for making models of myocardial infarction. As to the treatments to these individuals by the four kinds of gases, the laser tissue blood oxygen monitor carried out measures on the pre-treatment (pre), the respective conditions at 10 min, 20 min and 30 min after starting the treatments, and the volume of oxygenated blood (volume of oxyhemoglobin) in the tissue of the individuals under the conditions (post) after finishing the treatments, and the measured results are shown in Table 1. To concretely explain Table 1, the air mist (AM) was experimented on the 13 individuals, and the laser tissue blood oxygen monitor carried out measures on the pre-treatment (pre), the conditions at 10 min, 20 min and 30 min after the treatments and the volumes of oxyhemoglobin of the respective individuals under the conditions (post) after the treatments. Then, “reference values” were made from values when having calculated the average values of the volume of oxyhemoglobin of the 13 individuals measured with the blood flow meter before the treatments, and Table expresses this average values as “1.000”. […] With respect to the average values of the volume of oxyhemoglobin of the respective individuals at 20 min, 30 min after starting the treatments and at the case of post, the above mentioned reference value made the division calculation on the value when having calculated the reference value of the volumes of oxyhemoglobin of the respective individuals, and the values calculated by the division are shown as the average values. […] The measures at this time also performed in each of the treatments as the pre-treatment (pre), the respective conditions of passing 10 min, 20 min and 30 min after starting the treatments, under the conditions (post) after finishing the treatments. In the results of measuring the treatments of the respective gases, “reference values” were made from values when calculating the average values of the volume of deoxyhemoglobin, the average value was expressed with “1.000” in this Table. The above mentioned reference values made the division calculation on the values when calculating the average values of the amount of deoxyhemoglobin of the respective individuals measured by the laser tissue blood oxygen monitor in the pre-treatment (pre) in the respective individuals of the cases of passing 20 min, 30 min and the condition (post) after finishing the treatments, and the values calculated by the division are shown as the average values. […] The measures performed, also at this time, in each of the gas treatments of the pre-treatment (pre), the respective conditions of 10 min, 20 min, 30 min after starting the treatment, and under the conditions (post) after finishing the treatments. In the results of measuring the treatments of the respective gases, making “reference values” from values when having calculated the average values of the volume of total hemoglobin, the average value is expressed with “1.000” in this Table. […]

myocardial infarction = experiment: measuring the tissue pH over weeks of treatment; format: in vivo, wistar rats
Method: The composition to be sealed under pressure into the carbon dioxide gas mist pressure bath means was experimented in the four kinds of the control (C), non-treated myocardial infarction (NM), CO2 mist (M) and CO2 gas. The number practiced by each of the gases is 8, 9, 8 and 5 individuals. In each of treatments, the pH changes of the individuals are measured in the pre-treatment (Δ1 day), one week after the treatment (Δ1 wks), two week after the treatment (Δ2 wks), and three week after the treatment (Δ3 wks). To explain Table 5 concretely, the control (C) was experimented to 8 individuals, as to the values of pH of the respective individuals are measured 1 week (Δ1 wks) after the treatment, 2 weeks (Δ2 wks) after the treatment, and (Δ3 wks) after the treatment. As to the changing values of pH of the respective individuals, making the reference values of the values when having calculated the average values of pH of 8 individuals measured before the treatment (Δ1 day), Table 5 expresses this reference value as “0.000”. Similarly, also as to three kinds of gases of the non treated myocardial infarction (NM), CO2 mist and CO2 gas (CG), making the reference values of the values when having calculated the average values of the changing values in pH before the treatment (Δ1 day), Table 5 expresses this reference value as “0.000”. The average values of the changing values of pH in the respective individuals measured at 1 week (Δ1 wks) after the treatment, 2 weeks (Δ2 wks) after the treatment and (Δ3 wks) after the treatment are shown with the respective changing amounts from the respective reference values. […] The numbers of the individuals practiced with the gases are 8, 9, 8 and 5 pieces, respectively, providing that the average values of pH are shown as they are pre-treatment (day 1), 1 week (Δ1 wks) after the treatment, 2 weeks (Δ2 wks) after the treatment, and (Δ3 wks) after the treatment.

[2] = 10 min, relative to pre = 1.000
[3] = 20 min, relative to pre = 1.000
[4] = 30 min, relative to pre = 1.000

With `O=C=O` [CG, carbon dioxide] the “StO2 (degree of oxygen saturation in blood in the tissue), average value” (shortened to “StO2 … average value”) [1, 2] was 1.027, the “total Hb (volume of total hemoglobin in the tissue), average value” (“total Hb” for short) [1, 2] was 1.002 and the “deoxyHb (volume of deoxyhemoglobin in the tissue), average value” (“deoxyHb” below) ([1]; 10 min after starting treatment, relative to pre = 1.000) was “.974”. The “oxyHb (volume of oxyhemoglobin in the tissue), average value” ([1]; 10 min after starting treatment, relative to pre-treatment average = 1.000) was 1.030, the “StO2 … average value” [1, 3] was 1.061 and the “deoxyHb” value [1, 3] was “.942”. For the same compound, the “total Hb” value [1, 3] was 1.010, the “oxyHb (volume of oxyhemoglobin in the tissue), average value” ([1]; 20 min after starting treatment, relative to pre = 1.000) was 1.074 and the “StO2 … average value” [1, 4] was 1.063. The “deoxyHb” value [1, 4] was “.930”, the “total Hb” value [1, 4] was “.995” and the “amount of oxyhemoglobin, effect of the treatment in words” value ([1]; over the course of treatment (FIG. 11)) was “though not significant, increase of the amount of oxyhemoglobin was recognized”. For the same compound, the “StO2, effect of the treatment in words” value ([1]; over the course of treatment (FIG. 17)) was “increases until 20 minutes after the treatment starts”, the “oxyHb (volume of oxyhemoglobin in the tissue), average value” ([1]; post (after finishing treatment), relative to pre = 1.000) was 1.051 and the “StO2 … average value” ([1]; post, relative to pre = 1.000) was 1.065. The “deoxyHb” value ([1]; post, relative to pre = 1.000) was “.915”, the “total Hb” value ([1]; post, relative to pre = 1.000) was “.981” and the “tissue pH, average value” (myocardial infarction; 1 wks after the treatment) was 7.168. The “change of tissue pH (ΔpH), average value” (myocardial infarction; 1 wks after the treatment, change from pre-treatment (1 day) = 0.000) was “−.084”, the “tissue pH, average value” (myocardial infarction; 2 wks after the treatment) was 7.340 and the “change of tissue pH (ΔpH), average value” (myocardial infarction; 2 wks, change from pre-treatment = 0.000) was “.090”. The “tissue pH, average value” (myocardial infarction; 3 wks after the treatment) was 7.306, the “change of tissue pH (ΔpH), average value” (myocardial infarction; 3 wks, change from pre-treatment = 0.000) was “.050” and the “tissue pH, average value” (myocardial infarction; pre-treatment (day 1)) was 7.254.
